Measured values as given in US8911953B2, “TDF-related compounds and analogs thereof, analogs and bioactive fragments” (Thrasos Innovation, Inc., priority 2005, dated 2014).
Entries after “also recorded” stand apart in the source; their conditions may differ. Positions of bridges follow the written chain, without caps; N, C: chain ends. No end group written: not given here.

B1: BMP-7: recombinant human mature BMP-7 (BMP-7 or TDF-1), positive control therapy (protein)
chain: STGSKQRSQNRSKTPKNQEALRMANVAENSSSDQRQACKKHELYVSFRDLGWQDWIIAPEGYAAYYCEGECAFPLNSYMNATNHAIVQTLVHFINPETVPKPCCAPTQLNAISVLYFDDSSNVILKKYRNMVVRACGCH

What was measured:
[1] = tested on: UUO mice; experiment: Unilateral ureteral obstruction (UUO) mouse model of chronic renal injury; format: in vivo
Procedure: Schematic of the unilateral urinary obstruction (UUO) mouse model of chronic renal injury. One ureter was ligated on Day 0 (D0) and mice received one of the following treatments: vehicle (control), BMP-7 by intraperitoneal (ip) administration (positive control) or TDFRP by ip, intravenous (iv) or oral (po) administration. Mice were sacrificed on Day 5 (D5) or Day 7 (D7) and the kidneys were evaluated for disease pathology.
Unilateral ureteral obstruction (UUO) is a model resembling human obstructive nephropathy, which represents an inducible chronic model of interstitial fibrosis. UUO is induced by ligation of one ureter, leaving the contra-lateral kidney to serve as a control. As a result of the procedure, mice develop renal tubulointerstitial inflammation, tubulointerstitial fibrosis and tubular atrophy, without hypertension, proteinuria, lipid dysregulation and little glomerular damage contributing to the disease state (Ito et al (2004). J. Urol. February; 171(2 Pt 1): 926-30.; Bhangdia et al. (2003) J. Urol. November; 170(5): 2057-62.; Rawashdeh et al. (2003) Invest Radiol. 2003 March; 38(3): 153-8.; Hruska et al (2000) Am J Physiol Renal Physiol. 2000 July; 79(1): F130-43.). Furthermore, renal fibrosis is associated with alteration of epithelial and fibroblastic cells to myofibroerblasts, along with increased expression of TGF-beta and progressive loss of renal function.

[2] = tested on: cisplatin-treated Sprague-Dawley rats; experiment: Rat cisplatin model of acute kidney injury; format: in vivo; conditions: for ICAM-1 in kidney sections: anti-ICAM-1 staining; for ICAM-1 in kidney sections / proliferating cells / cellular regeneration (PCNA) / macrophages accumulating in the kidneys: b674: 2.8 mg/kg bw; for proliferating cells / cellular regeneration (PCNA): anti-PCNA staining; for macrophages accumulating in the kidneys: macrophage-specific marker
Source text: The rat cisplatin model has been studied extensively and is considered a relevant model for human acute kidney injury. Kidneys from cisplatin-treated animals show little evidence of cell proliferation. In contrast, animals that are protected or are able to recover from the nephrotoxic effects of cisplatin treatment show proliferation as detected by anti-proliferating cell nuclear antigen or PCNA antibodies. This model provides a mechanism for identifying agents that can protect the kidney from inflammatory cytokine-mediated injury, as well as, in repairing organ damage. Macrophages infiltrate the kidneys of animals treated with cisplatin and this early marker of nephropathy can be detected using anti CD-68 antibodies. Agents that decrease the number of macrophages in kidneys and prevent inflammatory cell-mediated damage associated with cisplatin treatment can be detected using immuno-histological analysis. Kidney sections treated with agents that show increased expression of α-actin in smooth muscle cells (SMC) are indicative of protecting the in integrity of SMC and alleviating injurious damage to the kidney.
Male Sprague-Dawley rats (˜250 gm) are injected ip with 5 mg/kg cisplatin (1 mg/ml in water) at time zero to induce acute renal failure. In this model, clinical signs (rise in serum creatinine) peaks at 4 to 5 days. The test compound and control substances were administered iv via the tail vein as 0.5 ml slow bolus injections. The negative control substance was the vehicle (PBS pH 7.2+5% Mannitol), while the positive control therapy was recombinant human mature BMP-7 (BMP-7 or TDF-1). The end points are serum creatinine and BUN levels and histology.
TDFRP Compound (SEQ ID NO:45) was tested in male Sprague-Dawley rats (250 gm to 300 gm) to establish the dose range and the extent to which the compound is able to prophylactically and therapeutically ameliorate the renal toxic effects of cisplatin. The cisplatin dosing level was the chemotherapeutic level used in humans, 40 ug/kg bw. The end points were the level of creatinine in serum and kidney histology. […]
A stock solution (70 mg/ml) of TDFRP (SEQ ID NO:45) was made by dissolving it in 20 mM Acetate (ph 4.2). The stock solution was further diluted into phosphate buffered saline (PBS, pH 7.2) plus 5% Mannitol to compound concentrations of 14 mg/ml (28 mg/kg dose), 1.4 mg/ml (2.8 mg/kg dose) and 0.14 mg/ml (0.28 mg/kg dose).
Cisplatin was administered via i.p. injection (40 ug/kg bw) at time zero. Administration of therapeutic dosing of the compound, the BMP-7 positive control and vehicle negative control were by slow bolus i.v. injection through the tail vein at five time points: 2 hours before the administration of cisplatin, then at 24 hours, 48 hours, 72 hours and 96 hours post cisplatin administration. Blood samples were collected through the tail vein at time points of 0, 24, 48, 72 and 96 hours. At seven day sample was collected by exsanguination at sacrifice. Serum was prepared from the blood samples and analyzed for creatinine concentration. The serum concentration of creatinine, a byproduct of muscle activity that is released into the blood stream and cleared through the kidneys, is a marker of kidney function that tends to rise when kidney function becomes severely compromised (FIG. 21).
Upon sacrifice at seven days, the kidneys were harvested, fixed in formalin and imbedded in paraffin. They were then sagitally sectioned and stained in H&E stain. Kidney sections were also stained with anti-bodies against proliferating cell nuclear antigen (PCNA) (to identify sites of cell regeneration), macrophages, I-CAM-1, and smooth muscle. Also collected at sacrifice were tissues at and around the injection site (FIGS. 22, 25, 26).

| Molecule | severity of tubular damage (percent of renal tubular degradation) ([1]; 5-day model, administered orally, ip or iv) | progression of tubulointerstitial fibrosis disease ([1]; 5-day model, oral 5 mg/kg/24 hours or iv 50 mg/kg/24 hours) | progression of tubulointerstitial fibrosis disease ([1]; 7-day model, oral or iv 5 mg/kg/24 hours) | tubule structure of the kidney (H&E sections) ([2]; 2.8 mg/kg b.w.) | cisplatin-induced inflammation of the kidney cortex ([2]; 2.8 mg/kg bw) | smooth muscle loss ([2]; 2.8 mg/kg bw) | serum creatinine at the highest dose ([2]; 28 mg/kg bw i.v.) | cisplatin-induced level of creatinine in serum ([2]; 0.28, 2.8 and 28 mg/kg bw i.v.) | ICAM-1 in kidney sections [2] | ICAM-1 in kidney sections ([2]; listed as SEQ ID NO 45) | proliferating cells / cellular regeneration (PCNA) [2] | proliferating cells / cellular regeneration (PCNA) ([2]; listed as SEQ ID NO 45) | macrophages accumulating in the kidneys [2] | macrophages accumulating in the kidneys ([2]; listed as SEQ ID NO 45) | nephrotoxic effects of cisplatin exposure ([2]; rat, in vivo) | renal tubular morphology (tubular atrophy, necrosis and dilation) ([2]; rat, in vivo) | chronic renal injury ([1]; 5-day model, ip 300 ug/kg/48 hours) | UUO chronic renal injury ([1]; 7-day model, ip 300 ug/kg/48 hours) | peak serum creatinine levels in response to cisplatin ([2]; BMP-7 30 ug/kg bw and 200 ug/kg bw) |
| --- | --- | --- | --- | --- | --- | --- | --- | --- | --- | --- | --- | --- | --- | --- | --- | --- | --- | --- | --- |
| CYFDDSSNVLCKKYRS (disulfide 1-11 (inferred); not fully specified) [SEQ ID NO:45] | attenuated the severity of tubular damage | attenuated progression | significantly attenuated | improved | significantly reduced | reduced | more efficacious than the positive control; also recorded: return closer to base-line levels | reduces | reduced | less ICAM-positive material | increased the degree of cellular regeneration | Proliferating cells are observed | reduced | less macrophages | reduce or ameliorate | improved the morphology and structure of the kidney tubules | – | – | – |
| B1 | – | – | – | – | – | – | – | – | – | – | – | – | – | – | – | Improvement of Renal Tubular Morphology | Reversal | Reversal | lower peak serum creatinine levels |
